In series [1] the target is T1, PARP (Mus musculus, UniProt P11103).
T1 construct: endogenous in cells; host or cells: L1210 murine leukaemia cells, permeabilised by hypotonic buffer and cold shock
As to the kind of experiment: PARP enzyme inhibition assay ([32P]-NAD+ incorporation into TCA-precipitated poly(ADP-ribose), oligonucleotide-activated, permeabilised L1210 cells). The format is biochemical, murine (L1210 leukaemia cells). To be noted: for IC50: permeabilised L1210 cells, 26° C., 5 minutes. From the text: The poly(ADP-ribose) which is then synthesised by the enzyme can be precipitated by tri-chloracetic acid (TCA) and the amount of radio-labelled ^32 p incorporated therein measured, e.g. using a scintillation counter, to give a measure of the activity of the PARP under the particular conditions of the experiment. By repeating the experiment following the same procedure, and under the same conditions, in the presence of each compound to be tested the reduction in enzyme activity, representative of the inhibitory effect of the test compound, can then be ascertained from the reduction, if any, of the amount of [^32 p] measured in the TCA precipitated poly(ADP-ribose).
Thus, with a range of different compounds a set of comparative values for inhibitory activity can be obtained.
In practice, L1210 murine leukaemia cells have been used as a source of the PARP enzyme after being rendered permeable to exogenous [^32 P]NAD by exposure to hypotonic buffer and cold shock. […] This oligonucleotide sequence snaps back on itself to form a double-stranded molecule with a single blunt end and provides an effective substrate for activation of PARP.
The experimental protocol adopted, in which a synthetic oligonucleotide as mentioned above is introduced as a specific activator of PARP, discriminates between PARP and other mono-ADP-ribosyltransferases in the cells.
The oligonucleotide having the palindromic sequence […], synthesised by conventional means, was vacuum dried and stored as pellets in a freezer. Before use, it was made up to 200 μg/ml in 10 mM Tris/HCl, pH 7.8, with each pellet being dissolved completely in […] of buffer. The solution was then heated to 60° C. in a water bath for 15 minutes, and allowed to cool slowly to ensure correct reannealing. After adding 9.5 ml of buffer, the concentration was checked by measuring the optical density of a diluted sample at 260 nm. The main solution was then diluted to a concentration of 200 μg/ml and stored in 500 μl aliquots in a freezer, ready for use.
The L1210 cells used as the source of the PARP enzyme were maintained as a suspension culture in RPMI medium+10% foetal bovine serum+glutamine and antibiotics (penicillin and streptomycin). HEPES and sodium bicarbonate were also added, and the cells were seeded in 100 ml-200 ml of medium such that there would be a concentration of approximately 8×10^5 /ml at the time of carrying out an assay.
The solubility of the compound was then checked by adding a quantity of the DMSO solution to a quantity of the isotonic buffer, in the required final proportions that were to be used in carrying out the assay, and after an interval the solution was examined under a microscope for any signs of crystals forming.
A desired quantity of the cells, ascertained by counting with a haemocytometer, was then centrifuged (1500 rpm in a "Europa" model 24M centrifuge for 5 minutes), the supernatant removed, and the pellets obtained were resuspended in 20 ml Ca^++ Mg^++ free phosphate buffered saline (Dulbeco's modification A, abbreviated Dul A) at 4° C. before centrifuging again at 1500 rpm and 4° C. After again removing the supernatant, the cells were resuspended at a concentration of 3×10^7 cells/ml in ice cold hypotonic buffer and left for 30 minutes on ice. Nine volumes were then added of ice cold isotonic buffer, and the cells, now rendered permeable to exogenous NAD^+, were then used within the next hour for carrying out an assay. The permeablisation of the cells may be checked at this stage by adding duplicate aliquots of cells to an equal volume of trypan blue, leaving for 5 minutes and then counting on a haemocytometer. Those rendered permeable will take up the Trypan blue and appear coloured.

Series [2] concerns L1210 murine leukaemia cells. As to the kind of experiment: in vitro cytotoxicity assay (colony formation, L1210 cells, NU1064 with or without temozolomide). The format is cell-based. Particulars: for relative plating efficiency, NU1064 with temozolomide: 24 hours, normalised to temozolomide alone = 100%. The protocol: Again using cultures of the murine leukaemia L1210 cell line, growth inhibition experiments were carried out to assess the cytostatic effects of the compounds and clonogenic survival assays were performed to assess cytotoxicity, especially in relation to use of the compounds in conjunction with DNA damaging cytotoxic agents such as cytotoxic antitumour drugs or gamma irradiation. […] After 1 week colonies of viable cells were stained with MTT (1 ml 0.5 mg/ml) and counted.

Where [3] appears, read: read-out: IC50 value (PARP inhibition).

Where “and” joins values, the source holds several entries; their conditions need not be identical. Identical values can stand only once. Like-named read-outs stand apart in the source and are kept apart here.

T1 sequence (P11103 whole entry): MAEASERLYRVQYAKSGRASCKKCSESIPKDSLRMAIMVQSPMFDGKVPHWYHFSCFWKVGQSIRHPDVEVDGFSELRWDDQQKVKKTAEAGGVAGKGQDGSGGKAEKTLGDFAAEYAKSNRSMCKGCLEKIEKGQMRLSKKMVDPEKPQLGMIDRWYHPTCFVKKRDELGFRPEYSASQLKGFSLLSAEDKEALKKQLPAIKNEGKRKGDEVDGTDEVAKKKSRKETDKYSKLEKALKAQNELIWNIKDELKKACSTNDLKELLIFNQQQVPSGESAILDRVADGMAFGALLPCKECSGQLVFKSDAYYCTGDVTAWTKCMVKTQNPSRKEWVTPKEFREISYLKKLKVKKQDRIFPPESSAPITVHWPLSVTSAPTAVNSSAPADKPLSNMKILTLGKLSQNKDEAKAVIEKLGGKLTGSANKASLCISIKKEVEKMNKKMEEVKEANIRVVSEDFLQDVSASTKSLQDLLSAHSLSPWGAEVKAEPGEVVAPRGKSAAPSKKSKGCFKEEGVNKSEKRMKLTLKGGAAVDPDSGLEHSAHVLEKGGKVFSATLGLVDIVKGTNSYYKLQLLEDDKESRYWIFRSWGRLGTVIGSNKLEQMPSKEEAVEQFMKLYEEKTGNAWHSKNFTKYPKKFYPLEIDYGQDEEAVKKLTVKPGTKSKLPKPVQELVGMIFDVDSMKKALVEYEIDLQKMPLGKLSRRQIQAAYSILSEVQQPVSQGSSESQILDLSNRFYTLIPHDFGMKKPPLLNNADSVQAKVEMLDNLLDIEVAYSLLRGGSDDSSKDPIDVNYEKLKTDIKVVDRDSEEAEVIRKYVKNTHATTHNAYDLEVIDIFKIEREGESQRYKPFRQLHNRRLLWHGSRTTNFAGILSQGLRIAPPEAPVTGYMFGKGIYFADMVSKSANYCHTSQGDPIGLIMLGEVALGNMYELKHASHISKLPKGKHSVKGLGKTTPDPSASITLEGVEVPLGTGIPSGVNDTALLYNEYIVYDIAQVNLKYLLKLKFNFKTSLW

One may read the IC50 as the concentration that inhibits the measured activity by half. Consider `COc1ccc(-c2nc3c(C(N)=O)cccc3n2C(=O)c2ccccc2)cc1` [NU1101, 2-(4'-Methoxyphenyl)-1-benzoylbenzimidazole-4-carboxamide], for which, in series [1] (setting [3]), the IC50 stood at 270 nM. Still for that read-out and setting: then `COc1ccc(-c2nc3c(C(N)=O)cccc3n2C)cc1` [NU1090, 2-(4'-Methoxyphenyl)-1-methylbenzimidazole-4-carboxamide], with around 100 nM; and `NC(=O)c1ccccc1` [benzamide, reference compound], with 12400 ± 3100 nM. For the molecule `NC(=O)c1cccc2[nH]cnc12` [NU1066, benzimidazole-4-carboxamide], in series [1] (IC50 value (PARP inhibition)), the IC50 is 1260 nM and 1020 nM. `O=C(O)c1cccc2nc[nH]c12` [NU1067, benzimidazole-4-carboxylic acid]: the “% Inhibition at 10 μM or IC50 value (result in words)” value in series [1] (result in words in table) was “Inactive”.

`COc1cccc(-c2nc3c(C(N)=O)cccc3[nH]2)c1` [NU1098, 2-(3'-Methoxyphenyl)-1-H-benzimidazole-4-carboxamide]: the IC50 in series [1] (setting [3]) worked out at 130 nM. In the case of `Cc1nc2c(C(N)=O)cccc2[nH]1` [NU1064, 2-methylbenzimidazole-4-carboxamide], the “relative plating efficiency, NU1064 with temozolomide” value in series [2] (100 μM NU1064 + 100 μM temozolomide) is listed as 28%; in series [2] (200 μM NU1064 + 100 μM temozolomide) it was 2%. Also, the viability at 100 µM in series [2] (Mus musculus, L1210, 100 μM NU1064, 24 hours, normalised to control = 100%, read-out: relative plating efficiency, NU1064 alone) was determined as 72%. Further, the viability at 200 µM in series [2] (Mus musculus, L1210, 200 μM NU1064, 24 hours, normalised to control = 100%, read-out: relative plating efficiency, NU1064 alone) is 54%. For the same molecule, in series [2] (increasing concentrations of NU1064 + 100 μM temozolomide), the “potentiation of temozolomide cytotoxicity (in words)” value is on record as “very marked increase in temozolomide cytotoxicity”. Besides, in series [1] (setting [3]), the IC50 worked out at 1090 ± 230 nM. `NC(=O)c1cccc2nc(-c3ccc(O)cc3)[nH]c12` [NU1085, 2-(4'-Hydroxyphenyl)-1-H-benzimidazole-4-carboxamide]: in series [1] (IC50 value (PARP inhibition)), the IC50 came to 77 nM. Regarding `NC(=O)c1cccc2[nH]c(-c3cccc(C(F)(F)F)c3)nc12` [NU1093, 2-(3'-Trifluoromethylphenyl)-1-H-benzimidazole-4-carboxamide], in series [1] (setting [3]), the IC50 came to 76 nM.

`COc1ccc(-c2nc3c(C(N)=O)cccc3[nH]2)cc1` [NU1076, 2-(4'-methoxyphenyl)benzimidazole-4-carboxamide]: the IC50 in series [1] (setting [3]) stood at 59 nM. Turning to “CGGAATTCCG: single strand oligonucleotide having the palindromic sequence CGGAATTCCG, activator of PARP (chemistry not given here) [reference compound]”, in series [1], the “activation of PARP by oligonucleotide (in words)” value was “potent activator of the enzyme”. Regarding `NC(=O)c1cccc2nc(-c3ccc(N)cc3)[nH]c12` [NU1103, 2-(4'-aminophenyl)benzimidazole-4-carboxamide], the IC50 in series [1] (setting [3]) turned out to be 91 nM. Same read-out and setting: then `NC(=O)c1cccc(O)c1` [3-hydroxybenzamide, reference compound], with 8000 ± 3500 nM. For the molecule `N#Cc1ccc(-c2nc3c(C(N)=O)cccc3[nH]2)cc1` [NU1092, 2-(4'-Cyanophenyl)-1-H-benzimidazole-4-carboxamide], the “PARP inhibitory activity (in words)” value in series [1] is reported as “exceptionally high inhibitory activities”. Further, in series [1] (setting [3]), the IC50 was 33 nM. Turning to `NC(=O)c1cccc2[nH]c(C(F)(F)F)nc12` [NU1086, 2-trifluoromethylbenzimidazole-4-carboxamide], the IC50 in series [1] (setting [3]) was found to be 1600 nM.

The molecule `Cn1nnc2c(C(N)=O)ncn2c1=O` [temozolomide, reference compound] returned a plating efficiency in series [2] (100 μM temozolomide alone, 24 hours (control 89%)) of 32%. As to `NC(=O)c1cccc2[nH]c(-c3ccc([N+](=O)[O-])cc3)nc12` [NU1091, 2-(4'-Nitrophenyl)-1-H-benzimidazole-4-carboxamide], the “PARP inhibitory activity (in words)” value in series [1] is reported as “exceptionally high inhibitory activities”. Further, the IC50 in series [1] (setting [3]) worked out at 22 nM.

Source of the values: patent US6100283A, “Benzimidazole compounds” (Newcastle University Ventures Limited, priority 1995, dated 2000).
